Measurements: patent US20240358692A1, “TREATMENT OF SCLERODERMA” (Aisa Pharma, Inc., priority 2023, published 2024)

How the values were obtained:
[1] = tested on: participants with SSc-RP; test: SHAQ - Visual Analog Scale - Pain; type: in vivo, human; settings: for % change in Pain: SHAQ, mITT Part A
Description: The standard, validated, patient reported outcome measures tool for SSc patients, the Scleroderma Health Assessment Questionnaire (SHAQ), will be used to assess the participant qualify of life. Details are attached in the Appendix. The participant quality of life will be scored, and a disability index calculated for each questionnaire completed by the patient at Screening and each in-clinic visit. The absolute change in participant quality of life from baseline to the end of each dosing period will be calculated similar to frequency data as before.
The standard, validated, patient reported outcome measures tool for SSc patients, the SHAQ, was collected at the time points specified in the study schedules (FIG. 2 and FIGS. 4A and 4B) to assess the participant's quality of life. The SHAQ included a Raynaud's VAS that will also be reported separately.
Pain on the SHAQ outcome measure on the first line in table F is a composite of all pain experienced in patients with SSc, comprising joint pain, back pain, headache, odynophagia, skin ulcer related discomfort, Raynaud's, and neuropathic pain. Aisa Pharma believes, based on the biologic attributes and actions of cilnidipine that differ from most dihydropyridine calcium channel antagonists that cilnidipine might have direct analgesic effects in certain pain conditions and in fact has been designated to receive evaluation through the […] Preclinical Pain Screening Platform Program to investigate the drug in multiple in vitro and in vivo preclinical models of pain that are validated and predictive of effects in man.

[2] = tested on: participants with SSc-RP; test: Average duration of weekly RP attacks (minutes), patient diary; type: in vivo, human; settings: Cilnidipine 10 mg
Description: The absolute change in average duration of weekly RP attacks from baseline to the end of each dosing period was and will be a secondary outcome variable. The sponsor-developed participant-informed diary was and will be used to record data. Average duration of weekly RP attacks is defined as the total duration of RP attacks divided by total number of RP attacks within the last 7 days of each dosing period. Total duration of RP attacks during the last 7 days of screening period divided by the total number of RP attacks will be used as baseline for the analysis of all periods. The variable will be calculated similar to frequency data as before.

[3] = Any Cilnidipine (N = 17), Day 12, PP Population, Part A
[4] = Cilnidipine 10 mg, SSc patients, PP, Part A
[5] = Cilnidipine 20 mg, SSc patients, PP, Part A
[6] = Modified ITT Population-Part A, Day 12, dose cilnidipine 10 mg, tadalafil 5 mg, alone or combined as labelled
[7] = Modified ITT Population-Part A, Day 12, dose cilnidipine 20 mg, tadalafil 5 mg, alone or combined as labelled
[8] = Pooled Cilnidipine (N = 8), Day 12, PP Population, Part A
[9] = pooled Cilnidipine 10 mg and Cilnidipine 10 mg + Tadalafil 5 mg
[10] = pooled Cilnidipine 20 mg and Cilnidipine 20 mg + Tadalafil 5 mg
[11] = pooled cilnidipine 10 mg and 20 mg arms (combination: + tadalafil 5 mg)
[12] = Excluding Outliers, ITT Population - Part A
[13] = Excluding Outliers, by Baseline RCS, first RCS subgroup of table (not named), ITT Population - Part A

COCCOC(=O)C1=C(C)NC(C)=C(C(=O)OC/C=C/c2ccccc2)C1c1cccc([N+](=O)[O-])c1 (centres unmarked) [Cilnidipine]
SHAQ Visual Analogue Scale - Pain, Change from Baseline, Mean (SD) [1, 3]: −0.575 (1.0318)
SHAQ Visual Analogue Scale - Pain, Change from Baseline, Median [1, 3]: −0.600
SHAQ Visual Analogue Scale - Pain, In-Clinic Visit (Day 12), Mean (SD) [1, 3]: 2.476 (1.7312)
SHAQ Visual Analogue Scale - Pain, In-Clinic Visit (Day 12), Median [1, 3]: 2.200
SHAQ Visual Analogue Scale - Pain, Percent Change from Baseline, Mean (SD) [1, 3]: −22.77 (31.937) %
SHAQ Visual Analogue Scale - Pain, Percent Change from Baseline, Median [1, 3]: −22.58%
SHAQ VAS Pain, Change from Baseline, Max [1, 4]: 0.30
SHAQ VAS Pain, Change from Baseline, Mean [1, 4]: −0.100
SHAQ VAS Pain, Change from Baseline, Median [1, 4]: 0.000
SHAQ VAS Pain, Change from Baseline, Min [1, 4]: −0.70,
SHAQ VAS Pain, Change from Baseline, Q1 [1, 4]: −0.350,
SHAQ VAS Pain, Change from Baseline, Q3 [1, 4]: 0.150
SHAQ VAS Pain, Day 12, Max [1, 4]: 3.60
SHAQ VAS Pain, Day 12, Mean [1, 4]: 1.875
SHAQ VAS Pain, Day 12, Median [1, 4]: 1.950
SHAQ VAS Pain, Day 12, Min [1, 4]: 0.00,
SHAQ VAS Pain, Day 12, Q1 [1, 4]: 0.500,
SHAQ VAS Pain, Day 12, Q3 [1, 4]: 3.250
SHAQ VAS Pain, Percent Change from Baseline, Max [1, 4]: 11.5
SHAQ VAS Pain, Percent Change from Baseline, Mean [1, 4]: −9.88
SHAQ VAS Pain, Percent Change from Baseline, Median [1, 4]: 0.00
SHAQ VAS Pain, Percent Change from Baseline, Min [1, 4]: −41.2,
SHAQ VAS Pain, Percent Change from Baseline, Q1 [1, 4]: −41.18,
SHAQ VAS Pain, Percent Change from Baseline, Q3 [1, 4]: 11.54
% change in Pain ([1]; Cilnidipine 20 mg (n = 3)): −53%
SHAQ VAS Pain, Change from Baseline, Max [1, 5]: 0.70
SHAQ VAS Pain, Change from Baseline, Mean [1, 5]: −0.650
SHAQ VAS Pain, Change from Baseline, Min [1, 5]: −2.00,
SHAQ VAS Pain, Change from Baseline, Q1 [1, 5]: −1.400,
SHAQ VAS Pain, Change from Baseline, Q3 [1, 5]: 0.100
SHAQ VAS Pain, Day 12, Max [1, 5]: 4.30
SHAQ VAS Pain, Day 12, Mean [1, 5]: 1.875
SHAQ VAS Pain, Day 12, Median [1, 5]: 1.400
SHAQ VAS Pain, Day 12, Min [1, 5]: 0.40,
SHAQ VAS Pain, Day 12, Q1 [1, 5]: 0.550,
SHAQ VAS Pain, Day 12, Q3 [1, 5]: 3.200
SHAQ VAS Pain, Percent Change from Baseline, Mean [1, 5]: −34.56
SHAQ VAS Pain, Percent Change from Baseline, Min [1, 5]: −55.6,
SHAQ VAS Pain, Percent Change from Baseline, Q1 [1, 5]: −54.44,
SHAQ VAS Pain, Percent Change from Baseline, Q3 [1, 5]: −14.67
Visual Analog Scale-Pain, Change from Baseline, Mean [1, 6]: −0.100
Visual Analog Scale-Pain, Change from Baseline, Median [1, 6]: 0.000
Visual Analog Scale-Pain, Percent Change from Baseline, Median [1, 6]: 0.00%
Visual Analog Scale-Pain, Change from Baseline, Mean [1, 7]: −1.100
Visual Analog Scale-Pain, Change from Baseline, Median [1, 7]: −0.800
Visual Analog Scale-Pain, In Clinic Visit (Day 12), Median ([1]; Modified ITT Population-Part A, dose cilnidipine 20 mg, tadalafil 5 mg, alone or combined as labelled): 0.700
SHAQ Visual Analogue Scale - Pain, In-Clinic Visit (Day 12), Median ([1]; Pooled Cilnidipine 10 mg and Cilnidipine 10 mg + Tadalafil 5 mg (N = 9), Day 12, PP Population, Part A): 2.900
SHAQ Visual Analogue Scale - Pain, In-Clinic Visit (Day 12), Median ([1]; Pooled Cilnidipine 20 mg and Cilnidipine 20 mg + Tadalafil 5 mg (N = 8), Day 12, PP Population, Part A): 2.100
SHAQ Visual Analogue Scale - Pain, Change from Baseline, Mean (SD) [1, 8]: −0.375 (0.8311)
SHAQ Visual Analogue Scale - Pain, In-Clinic Visit (Day 12), Mean (SD) [1, 8]: 1.875 (1.5944)
SHAQ Visual Analogue Scale - Pain, Percent Change from Baseline, Mean (SD) [1, 8]: −23.98 (32.893) %
% change in Pain ([1]; Pooled Cilnidipine (n = 7)): −31%
% Δ from baseline, VAS Pain median ([1]; Pooled cilnidipine (n=6)): −45%
SHAQ VAS-Pain (change) ([1]; cilnidipine 20 mg): −1.1
VAS Pain Change from Baseline Max [1, 9]: 0.60
VAS Pain Change from Baseline Mean [1, 9]: −0.633
VAS Pain Change from Baseline Median [1, 9]: −0.700
VAS Pain Change from Baseline Min [1, 9]: −2.80,
VAS Pain Change from Baseline Q1 [1, 9]: −1.100,
VAS Pain Change from Baseline Q3 [1, 9]: 0.000
VAS Pain Day 12 Max [1, 9]: 5.50
VAS Pain Day 12 Median [1, 9]: 2.900
VAS Pain Day 12 Min [1, 9]: 0.00,
VAS Pain Day 12 Q1 [1, 9]: 1.000,
VAS Pain Day 12 Q3 [1, 9]: 3.800
VAS Pain Percent Change from Baseline Max [1, 9]: 18.8%
VAS Pain Percent Change from Baseline Mean [1, 9]: −20.07%
VAS Pain Percent Change from Baseline Median [1, 9]: −21.87%
VAS Pain Percent Change from Baseline Min [1, 9]: −72.2, %
VAS Pain Percent Change from Baseline Q1 [1, 9]: −37.46, %
VAS Pain Percent Change from Baseline Q3 [1, 9]: 5.77%
VAS Pain Change from Baseline Max [1, 10]: 0.90
VAS Pain Change from Baseline Mean [1, 10]: −0.700
VAS Pain Change from Baseline Median [1, 10]: −0.650
VAS Pain Change from Baseline Min [1, 10]: −2.00,
VAS Pain Change from Baseline Q1 [1, 10]: −1.700,
VAS Pain Change from Baseline Q3 [1, 10]: −0.100
VAS Pain Day 12 Max [1, 10]: 5.30
VAS Pain Day 12 Mean [1, 10]: 2.000
VAS Pain Day 12 Median [1, 10]: 2.100
VAS Pain Day 12 Min [1, 10]: 0.40,
VAS Pain Day 12 Q1 [1, 10]: 0.700,
VAS Pain Day 12 Q3 [1, 10]: 2.200
VAS Pain Percent Change from Baseline Max [1, 10]: 20.5%
VAS Pain Percent Change from Baseline Median [1, 10]: −51.06%
VAS Pain Percent Change from Baseline Min [1, 10]: −58.6, %
VAS Pain Percent Change from Baseline Q1 [1, 10]: −55.56, %
VAS Pain Percent Change from Baseline Q3 [1, 10]: −4.55%
VAS Pain Change from Baseline Max [1, 11]: 0.30
VAS Pain Change from Baseline Median [1, 11]: −0.500
VAS Pain Change from Baseline Min [1, 11]: −2.00,
VAS Pain Change from Baseline Q1 [1, 11]: −0.800,
VAS Pain Change from Baseline Q3 [1, 11]: 0.000
VAS Pain Day 12 Max [1, 11]: 3.60
VAS Pain Day 12 Median [1, 11]: 1.000
VAS Pain Day 12 Min [1, 11]: 0.00,
VAS Pain Day 12 Q1 [1, 11]: 0.400,
VAS Pain Day 12 Q3 [1, 11]: 2.900
VAS Pain Percent Change from Baseline Max [1, 11]: 11.5%
VAS Pain Percent Change from Baseline Min [1, 11]: −55.6, %
VAS Pain Percent Change from Baseline Q1 [1, 11]: −53.33, %
VAS Pain Percent Change from Baseline Q3 [1, 11]: 0.00%
Average Duration of Weekly RP Attacks (All Attacks), Change from Baseline, Mean [2, 12]: -8.48 min
Average Duration of Weekly RP Attacks (All Attacks), Percent Change from Baseline, Mean [2, 12]: −21.20%
Average Duration of weekly symptomatic RP attacks, Mean [2, 12]: 31.64 min
Average Duration of weekly symptomatic RP attacks, Median [2, 12]: 31.64 min
Percent Change from Baseline in average duration of weekly symptomatic RP attacks, Median [2, 12]: −34.60%
Average Duration of weekly symptomatic RP attacks, Mean [2, 13]: 31.64 min
Average Duration of weekly symptomatic RP attacks, Median [2, 13]: 31.64 min
Change from Baseline in average duration of weekly symptomatic RP attacks, Mean [2, 13]: -16.74 min
Change from Baseline in average duration of weekly symptomatic RP attacks, Median [2, 13]: -16.74 min
Percent Change from Baseline in average duration of weekly symptomatic RP attacks, Mean [2, 13]: −34.60%
Percent Change from Baseline in average duration of weekly symptomatic RP attacks, Median [2, 13]: −34.60%
Average Duration of Weekly Symptomatic RP Attacks Change from Baseline, Mean ([2]; ITT Part A): -16.74 min
Average Duration of Weekly Symptomatic RP Attacks Change from Baseline, Median ([2]; ITT Part A): -16.74 min
Average Duration of Weekly Symptomatic RP Attacks Percent Change from Baseline, Mean ([2]; ITT Part A): −34.60%
